Legend:
[1] = system: fimbria formix transected rats; test: Fimbria formix transected rat model (DNMTP, DRL, LTP); type: in vivo
Procedure: Previously, AZD0328 has been described, for example in U.S. Pat. No. 6,110,914 and counterpart worldwide patents, as an α7 agonist. In a widely used model of cognitive dysfunction using fimbria formix transected rats challenged to perform Delayed Non-Match to Position or Differential Reinforcement of Low Rates of Responding tasks, agonistic doses of 1 mg per kg and higher of AZD0328 effectively compensated for the acetylcholine deficiencies of these animals. These doses were associated with plasma concentrations at which AZD0328 acts as an agonist at α7 receptors in vitro. However, lower concentrations were ineffective in these model systems.
The potency of AZD0328 to activate α7 receptors in these in vitro preparations was in the micromolar range. […] For example, 1 or 3 mg/kg of AZD0328 reversed deficits in hippocampal long-term potentiation or response accuracy in two different cognitive tests in fimbria-formix lesioned animals (delayed non-match to position and differential reinforcement of low rates of responding). The minimum effective dose of 1 mg per kg necessary to reverse deficits in the rat fimbria formix model produced plasma concentrations in the range 0.29-1.4 μM in the rat, consistent with the range of concentrations required to activate α7 responses in vitro.

marmoset monkeys = test: Behavioral effects / tolerability; type: in vivo; conditions: im, first five minutes after administration
Procedure: Prior to testing its effects on cognitive task performance in marmoset monkeys, the tolerability of AZD0328 was assessed. (Table 3). Behaviours noted in individual marmosets during the five minutes immediately following drug administration were salivation, vomiting, scratching, defecation and increased activity.

[2] = target: α7 receptor binding sites (Rattus norvegicus, UniProt Q05941); type: in vivo; conditions: sc, 2-4 h
5-HT3A/B receptors = target: T1, 5-HT3A/B receptors (Homo sapiens, UniProt O95264+P46098); test: Functional potency at recombinant human receptors in vitro; type: cell-based
T1 construct: expressed in transfected cells
T1 sequence (P46098 24-478): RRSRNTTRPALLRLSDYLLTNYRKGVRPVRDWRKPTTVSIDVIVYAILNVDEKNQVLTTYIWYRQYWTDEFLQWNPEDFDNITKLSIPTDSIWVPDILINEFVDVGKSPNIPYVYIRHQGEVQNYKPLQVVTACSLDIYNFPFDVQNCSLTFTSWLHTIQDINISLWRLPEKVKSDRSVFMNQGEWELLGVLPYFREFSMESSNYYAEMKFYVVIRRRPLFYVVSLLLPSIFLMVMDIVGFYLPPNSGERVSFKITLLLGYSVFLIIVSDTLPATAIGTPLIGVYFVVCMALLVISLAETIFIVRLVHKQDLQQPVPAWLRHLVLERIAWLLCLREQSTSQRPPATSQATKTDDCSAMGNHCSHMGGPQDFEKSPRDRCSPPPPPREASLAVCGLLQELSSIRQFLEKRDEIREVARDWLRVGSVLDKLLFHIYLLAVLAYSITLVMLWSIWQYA
T1 sequence (O95264 22-441): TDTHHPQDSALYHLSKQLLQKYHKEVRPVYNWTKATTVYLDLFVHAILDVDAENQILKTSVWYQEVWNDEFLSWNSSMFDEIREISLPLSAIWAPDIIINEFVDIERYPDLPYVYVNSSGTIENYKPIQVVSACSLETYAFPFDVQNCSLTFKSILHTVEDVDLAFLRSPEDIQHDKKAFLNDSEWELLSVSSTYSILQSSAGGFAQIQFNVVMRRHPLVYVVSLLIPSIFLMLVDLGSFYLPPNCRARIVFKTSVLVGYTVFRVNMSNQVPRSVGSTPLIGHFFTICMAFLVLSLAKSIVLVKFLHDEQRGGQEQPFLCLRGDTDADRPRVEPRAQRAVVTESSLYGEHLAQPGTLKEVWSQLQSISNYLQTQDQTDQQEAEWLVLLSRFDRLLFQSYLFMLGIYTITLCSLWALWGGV

rats = test: Cardiovascular/respiratory telemetry and whole body plethysmography; type: in vivo, rat
Procedure: (§1) Effects of single oral doses of AZD0328 on mean, systolic and diastolic arterial blood pressures, heart rate, body temperature, locomotor activity and respiratory parameters were evaluated in rats by combining whole body plethysmography with telemetry (Table 3). […] The degree of hypertension, however, was similar at the 3 highest doses, which partly can be explained by the high individual variation in plasma exposure at each dose level. The effect on heart rate was, on the other hand, dose-related.
(§2) Effects of AZD0328 on respiratory function were evaluated in the combined cardiovascular/respiratory study in rats (Table 3). Respiratory rate, tidal volume, inspiratory and expiratory times, and peak inspiratory and expiratory flows were measured […].

[3] = as above; type: in vivo, rat; conditions: plasma; rat, oral, whole-body plethysmography; read-out: NOAEL on ventilatory function / respiration, total Cmax
Procedure: as §1, §2

FFX rats = test: Hippocampal LTP in vivo in FFX rats; parameters: species or system rat; conditions: 0.3 mg/kg
Procedure: AZD0328 reversed a deficit in hippocampal long-term potentiation (LTP) in FFX Sprague Dawley rats (Table 2). […] 0.3 mg/kg of AZD0328 was ineffective in this test.

[4] = PK/TK multiple dose studies; type: in vivo; conditions: rabbit 2F, DMB15, subcutaneous 1.15 mg/kg (3 μmol/kg), day 18
Source text: This section provides a summary of the pharmacokinetic and metabolism properties of AZD0328 derived from in vivo studies. […] The derived PK/TK parameters from these studies are presented in Table 4 for single dose studies (DMR4, 0619LR, 20030191PCR, DM016, DMB10, DMW12, 50190, 0190DD and 03.330/1), and are presented in Table 5 multiple dose PK/TK studies (DMR4, 0612AR, DMB15, 50190, 0190DD and 0295AD).

guinea pigs = test: Cardiac repolarisation in anesthetised guinea pig (MAP); type: in vivo; conditions: highest dose, total plasma concentration 8.5 μM
Procedure: Effects of AZD0328 on ventricular repolarisation and intracardiac conduction were investigated in 6 anesthetised and ventilated guinea pigs (Table 3). For the electrophysiological characterisation, monophasic action potentia MAP duration at 90% repolarisation (MAPD90), ventricular conduction velocity (MAP rise time), and atrioventricular (AV) conduction time were recorded during cardiac pacing. AZD0328 had dose-dependent effects on the electrophysiological activities in the guinea pig heart. At the highest dose, resulting in a total plasma concentration of 8.5 μM, MAPD90 and AV conduction time were prolonged by 20% and 13%, respectively. It is concluded that AZD0328 delayed ventricular repolarisation in the anesthetised guinea pig by 10% at a total plasma concentration of 2.4 μM.

Chain of α7 receptor binding sites (Q05941 23-502): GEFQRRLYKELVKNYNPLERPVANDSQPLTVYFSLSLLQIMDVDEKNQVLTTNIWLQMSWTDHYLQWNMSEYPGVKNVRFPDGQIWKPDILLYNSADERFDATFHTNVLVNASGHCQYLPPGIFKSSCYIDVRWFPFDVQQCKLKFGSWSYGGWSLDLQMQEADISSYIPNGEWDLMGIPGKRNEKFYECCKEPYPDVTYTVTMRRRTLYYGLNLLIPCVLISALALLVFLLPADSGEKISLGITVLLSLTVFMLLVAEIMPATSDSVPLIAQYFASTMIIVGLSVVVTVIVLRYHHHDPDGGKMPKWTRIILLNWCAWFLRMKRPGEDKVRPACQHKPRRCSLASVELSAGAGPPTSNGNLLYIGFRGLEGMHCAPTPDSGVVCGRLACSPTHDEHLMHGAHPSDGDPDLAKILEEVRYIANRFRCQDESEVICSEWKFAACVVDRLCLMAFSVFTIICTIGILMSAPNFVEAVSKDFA

Compound: c1cnc2c(c1)C[C@@]1(CN3CCC1CC3)O2 [AZD0328, (R)-Spiro[1-azabicyclo[2.2.2]octane-3,2′(3′H)-furo[2,3-b]pyridine]]
- Minimum effective dose [1]: 1 mg per kg
- Doses with salivation, vomiting, scratching, defecation and increased activity (marmoset monkeys): administration with 0.03-3 mg/kg
- Active dose, [125I]-α-bungarotoxin binding ex vivo increased receptor number [2]: 0.1 µg/kg
- Functional potency α7 versus 5-HT3A/B (5-HT3A/B receptors): equipotent
- Dose with no CV effect (rats; Wistar rat, oral gavage): 1100 µg/kg
- Increase in blood pressure and heart rate (rats; conscious telemetered rat, oral): > 10%
- Locomotor activity or body temperature (rats; rat, oral, any dose): μM. No effect on locomotor
- HR increase (rats; telemetered Wistar rat, oral gavage, highest dose (total Cmax 31.2 μM)): 19%
- Cmax [3]: ≤ 31.2 µM
- Hippocampal LTP (FFX rats): ineffective
- Tmax [4]: 18 to 60 min
- AV conduction time prolongation (guinea pigs): 13%
- MAPD90 prolongation (guinea pigs): 20%

Source: patent publication US20100168146A1, “Composition Comprising (R)-Spiro[L-Azabicyclo[2.2.2]Octane-3,2'(3'H)-Furo[2,3-B]Pyridine (AZD0328) and its Use in the Treatment of Alzheimer's Disease, ADHD or Cognitive Dysfunction” (priority 2008, published 2010)
